Test results as given in PubChem BioAssay (NCI).
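96-well plates; 48 h exposure; 5 concentrations. Endpoints by linear interpolation between flanking doses. Not reached: highest tested concentration assigned. TGI: total growth inhibition.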

Assays:
Assay in all cases: NCI tumour cell line growth inhibition, 48 h
SF-539 CNS = system: SF-539 CNS
A549 NSCLC = system: A549 NSCLC
DMS 273 small cell lung = system: DMS 273 small cell lung
SNB-78 CNS = system: SNB-78 CNS
DMS 114 small cell lung = system: DMS 114 small cell lung
OVCAR-8 ovarian = system: OVCAR-8 ovarian
KM20L2 colon = system: KM20L2 colon
HOP-18 NSCLC = system: HOP-18 NSCLC
DLD-1 colon = system: DLD-1 colon
XF 498 CNS = system: XF 498 CNS
HL-60(TB) leukemia = system: HL-60(TB) leukemia
LXFL 529 NSCLC = system: LXFL 529 NSCLC
M19-MEL melanoma = system: M19-MEL melanoma
SF-268 CNS = system: SF-268 CNS
OVCAR-5 ovarian = system: OVCAR-5 ovarian
RXF-631 renal = system: RXF-631 renal

Compound | TGI (SF-539 CNS) [µM] | TGI (A549 NSCLC) [µM] | TGI (DMS 273 small cell lung) [µM] | TGI (SNB-78 CNS) [µM] | TGI (DMS 114 small cell lung) [µM] | TGI (OVCAR-8 ovarian) [µM] | TGI (KM20L2 colon) [µM] | TGI (HOP-18 NSCLC) [µM] | TGI (DLD-1 colon) [µM] | TGI (XF 498 CNS) [µM] | TGI (HL-60(TB) leukemia) [µM] | TGI (LXFL 529 NSCLC) [µM] | TGI (M19-MEL melanoma) [µM] | TGI (SF-268 CNS) [µM] | TGI (OVCAR-5 ovarian) [µM] | TGI (RXF-631 renal) [µM]
CC1=C(N2CC2)C(=O)c2nc3n(c2C1=O)CCC3OC(=O)CCl (centres undefined) | 0.152 | 0.169 | 0.128 | 0.6 | 0.512 | 0.165 | 0.547 | 0.178 | 1.58 | 0.0954 | 3.18 | 0.227 | 0.266 | 0.202 | 0.263 | 
C=CCc1cc(OC)c2c(c1)C(O)CC(c1ccccc1)O2 (centres undefined) | > 100 | > 100 | > 100 | > 100 | > 100 | > 100 | > 100 | > 100 | > 100 |  | > 100 | > 100 | > 100 | > 100 | > 100 | > 100
Cc1cc(N(CCC#N)CCC#N)ccc1/C=C/C(=O)Nc1cccc(Cl)c1 | > 100 | > 100 | > 100 |  | > 100 | > 100 | > 100 |  | > 100 | > 100 | > 100 | > 100 | > 100 | > 100 | > 100 | > 100
CN(CCO)c1nc2c(c(=O)[nH]1)CCC2 | > 100 | > 100 | > 100 | > 100 | > 100 | > 100 | > 100 | > 100 | > 100 | > 100 | > 100 | > 100 | > 100 | > 100 | > 100 | 
